Measured values published in the NIST ThermoML archive (doi:10.1016/j.fluid.2018.12.016).
Numbers after ± are expanded uncertainties.

Details: Liquid, Surface laser light scattering (SLLS)

C [methane] + CCCCCCCCCC
interfacial tension (310.93 K, 36221 kPa): 1.41e-05 ± 5.6e-06 mN/m | interfacial tension (310.94 K, 36221 kPa): 1.93e-05 ± 3.8e-06 mN/m | interfacial tension (310.95 K, 36187 kPa): 0.000902 ± 6e-05 mN/m | interfacial tension (310.96 K, 36198 kPa): 0.000591 ± 3.6e-05 mN/m | interfacial tension (310.97 K, 34448 kPa): 0.1569 ± 0.0011 mN/m | interfacial tension (310.97 K, 35150 kPa): 0.08112 ± 0.00074 mN/m | interfacial tension (310.97 K, 35795 kPa): 0.0247 ± 0.00088 mN/m | interfacial tension (310.97 K, 35857 kPa): 0.01978 ± 0.00034 mN/m | interfacial tension (310.97 K, 35989 kPa): 0.01122 ± 0.00022 mN/m | interfacial tension (310.97 K, 36092 kPa): 0.00519 ± 0.00022 mN/m | interfacial tension (310.97 K, 36215 kPa): 0.0001152 ± 1e-05 mN/m | interfacial tension (310.97 K, 36218 kPa): 4.75e-05 ± 7e-06 mN/m | interfacial tension (310.98 K, 35498 kPa): 0.04752 ± 0.0005 mN/m | interfacial tension (310.98 K, 35946 kPa): 0.014 ± 0.0002 mN/m | interfacial tension (310.98 K, 36206 kPa): 0.000326 ± 5.6e-05 mN/m | interfacial tension (310.99 K, 36151 kPa): 0.002584 ± 9.4e-05 mN/m | interfacial tension (311 K, 36213 kPa): 0.00015 ± 3.6e-05 mN/m | interfacial tension (311.12 K, 35885 kPa): 0.01746 ± 0.00032 mN/m
